{"source": "patent US12668845B2", "about": "“Methods for predicting drug responsiveness in cancer patients” (Allarity Therapeutics Europe ApS, priority 2018, dated 2026)", "key": {"[1]": {"tested_on": "HEC-1", "experiment": "Growth inhibition of cell lines treated with 2X-121", "assay_type": "cell-based", "details": "Homo sapiens; cell line HEC-1, origin Endometrial; read-out: Measured growth inhibition IC50"}, "[2]": {"tested_on": "MV-4-11", "experiment": "Growth inhibition of cell lines treated with 2X-121", "assay_type": "cell-based", "details": "Homo sapiens, MV4-11; cell line MV-4-11, origin AML; read-out: Measured growth inhibition IC50"}, "[3]": {"tested_on": "ECC-1", "experiment": "Growth inhibition of cell lines treated with 2X-121", "assay_type": "cell-based", "details": "Homo sapiens; cell line ECC-1, origin Endometrial; read-out: Measured growth inhibition IC50"}, "[4]": {"tested_on": "KG-1", "experiment": "Growth inhibition of cell lines treated with 2X-121", "assay_type": "cell-based", "details": "Homo sapiens; cell line KG-1, origin AML; read-out: Measured growth inhibition IC50"}, "[5]": {"tested_on": "HCT-116", "experiment": "Growth inhibition of cell lines treated with 2X-121", "assay_type": "cell-based", "details": "Homo sapiens; cell line HCT-116, origin Colon; read-out: Measured growth inhibition IC50"}, "[6]": {"tested_on": "MDA-MB-436", "experiment": "Growth inhibition of cell lines treated with 2X-121", "assay_type": "cell-based", "details": "Homo sapiens; cell line MDA-MB-436, origin Breast; read-out: Measured growth inhibition IC50"}, "[7]": {"tested_on": "SNU-423", "experiment": "Growth inhibition of cell lines treated with 2X-121", "assay_type": "cell-based", "details": "Homo sapiens; cell line SNU-423, origin HCC; read-out: Measured growth inhibition IC50"}, "[8]": {"tested_on": "MDA-MB-468", "experiment": "Growth inhibition of cell lines treated with 2X-121", "assay_type": "cell-based", "details": "Homo sapiens; cell line MDA-MB-468, origin Breast; read-out: Measured growth inhibition IC50"}, "[9]": {"tested_on": "HEC-1A", "experiment": "Growth inhibition of cell lines treated with 2X-121", "assay_type": "cell-based", "details": "Homo sapiens; cell line HEC-1A, origin Endometrial; read-out: Measured growth inhibition IC50"}, "[10]": {"tested_on": "MDA-MB-231", "experiment": "Growth inhibition of cell lines treated with 2X-121", "assay_type": "cell-based", "details": "Homo sapiens; cell line MDA-MB-231, origin Breast; read-out: Measured growth inhibition IC50"}, "[11]": {"tested_on": "MC/CAR", "experiment": "Growth inhibition of cell lines treated with 2X-121", "assay_type": "cell-based", "details": "cell line MC/CAR, origin Myeloma; read-out: Measured growth inhibition IC50"}, "[12]": {"tested_on": "BT-20", "experiment": "Growth inhibition of cell lines treated with 2X-121", "assay_type": "cell-based", "details": "Homo sapiens; cell line BT-20, origin Breast; read-out: Measured growth inhibition IC50"}, "[13]": {"tested_on": "IM-9", "experiment": "Growth inhibition of cell lines treated with 2X-121", "assay_type": "cell-based", "details": "Homo sapiens; cell line IM-9, origin B lymphoblast; read-out: Measured growth inhibition IC50"}, "[14]": {"tested_on": "HEC-151", "experiment": "Growth inhibition of cell lines treated with 2X-121", "assay_type": "cell-based", "details": "cell line HEC-151, origin Endometrial; read-out: Measured growth inhibition IC50"}, "[15]": {"tested_on": "HEC-251", "experiment": "Growth inhibition of cell lines treated with 2X-121", "assay_type": "cell-based", "details": "cell line HEC-251, origin Endometrial; read-out: Measured growth inhibition IC50"}, "[16]": {"target": "P-glycoprotein (Homo sapiens, UniProt P08183)", "sequence (P08183 whole entry)": "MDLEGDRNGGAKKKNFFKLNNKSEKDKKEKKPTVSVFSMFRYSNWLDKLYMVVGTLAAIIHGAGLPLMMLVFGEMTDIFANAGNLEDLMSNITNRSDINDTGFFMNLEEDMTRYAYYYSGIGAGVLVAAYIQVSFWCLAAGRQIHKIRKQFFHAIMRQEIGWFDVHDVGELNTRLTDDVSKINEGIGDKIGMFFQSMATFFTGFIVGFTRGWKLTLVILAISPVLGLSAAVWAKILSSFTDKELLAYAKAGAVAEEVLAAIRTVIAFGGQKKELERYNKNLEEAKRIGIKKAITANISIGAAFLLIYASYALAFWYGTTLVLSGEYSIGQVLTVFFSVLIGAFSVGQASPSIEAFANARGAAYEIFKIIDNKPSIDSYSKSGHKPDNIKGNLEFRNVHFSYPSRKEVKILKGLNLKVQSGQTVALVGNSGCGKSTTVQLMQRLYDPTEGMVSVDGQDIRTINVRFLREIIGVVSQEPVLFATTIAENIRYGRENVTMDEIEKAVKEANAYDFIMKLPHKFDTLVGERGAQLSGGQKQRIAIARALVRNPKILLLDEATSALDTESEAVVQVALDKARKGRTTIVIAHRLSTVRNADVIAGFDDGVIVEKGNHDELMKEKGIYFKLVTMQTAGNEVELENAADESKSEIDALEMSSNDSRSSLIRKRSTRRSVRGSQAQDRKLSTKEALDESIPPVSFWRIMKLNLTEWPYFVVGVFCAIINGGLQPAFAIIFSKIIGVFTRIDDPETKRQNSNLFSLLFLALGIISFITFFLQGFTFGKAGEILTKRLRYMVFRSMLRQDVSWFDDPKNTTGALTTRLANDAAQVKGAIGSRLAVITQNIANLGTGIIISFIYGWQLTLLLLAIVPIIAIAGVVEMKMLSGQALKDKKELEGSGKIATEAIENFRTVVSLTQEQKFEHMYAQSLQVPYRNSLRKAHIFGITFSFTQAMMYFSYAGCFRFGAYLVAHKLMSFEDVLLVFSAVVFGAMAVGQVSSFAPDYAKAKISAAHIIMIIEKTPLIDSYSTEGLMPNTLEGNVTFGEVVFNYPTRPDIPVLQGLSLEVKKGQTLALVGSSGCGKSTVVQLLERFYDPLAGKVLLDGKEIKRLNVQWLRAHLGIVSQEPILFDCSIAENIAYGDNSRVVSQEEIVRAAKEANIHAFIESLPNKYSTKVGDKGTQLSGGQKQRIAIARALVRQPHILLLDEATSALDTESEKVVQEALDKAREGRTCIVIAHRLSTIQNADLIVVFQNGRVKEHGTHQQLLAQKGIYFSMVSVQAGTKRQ", "details": "cited from earlier work"}, "[17]": {"tested_on": "THP-1", "experiment": "Growth inhibition of cell lines treated with 2X-121", "assay_type": "cell-based", "details": "Homo sapiens; cell line THP-1, origin AML; read-out: Measured growth inhibition IC50"}, "[18]": {"tested_on": "RL95-2", "experiment": "Growth inhibition of cell lines treated with 2X-121", "assay_type": "cell-based", "details": "Homo sapiens; cell line RL95-2, origin Endometrial; read-out: Measured growth inhibition IC50"}, "[19]": {"tested_on": "A549", "experiment": "Growth inhibition of cell lines treated with 2X-121", "assay_type": "cell-based", "details": "Homo sapiens; cell line A549, origin NSCLC; read-out: Measured growth inhibition IC50"}, "[20]": {"tested_on": "JVM-13", "experiment": "Growth inhibition of cell lines treated with 2X-121", "assay_type": "cell-based", "details": "JVM13; cell line JVM-13, origin MCL; read-out: Measured growth inhibition IC50"}, "[21]": {"tested_on": "NCEB-1", "experiment": "Growth inhibition of cell lines treated with 2X-121", "assay_type": "cell-based", "details": "NCEB1; cell line NCEB-1, origin MCL; read-out: Measured growth inhibition IC50"}, "[22]": {"tested_on": "SNU-182", "experiment": "Growth inhibition of cell lines treated with 2X-121", "assay_type": "cell-based", "details": "Homo sapiens; cell line SNU-182, origin HCC; read-out: Measured growth inhibition IC50"}, "[23]": {"tested_on": "MFE-296", "experiment": "Growth inhibition of cell lines treated with 2X-121", "assay_type": "cell-based", "details": "Homo sapiens; cell line MFE-296, origin Endometrial; read-out: Measured growth inhibition IC50"}, "[24]": {"tested_on": "HEC-50B", "experiment": "Growth inhibition of cell lines treated with 2X-121", "assay_type": "cell-based", "details": "cell line HEC-50B, origin Endometrial; read-out: Measured growth inhibition IC50"}, "[25]": {"tested_on": "NCI-H209", "experiment": "Growth inhibition of cell lines treated with 2X-121", "assay_type": "cell-based", "details": "Homo sapiens; cell line NCI-H209, origin SCLC; read-out: Measured growth inhibition IC50"}, "[26]": {"tested_on": "K562", "experiment": "Growth inhibition of cell lines treated with 2X-121", "assay_type": "cell-based", "details": "Homo sapiens; cell line K562, origin Erythroleukemia from CML Pt; read-out: Measured growth inhibition IC50"}, "[27]": {"tested_on": "SNG-II", "experiment": "Growth inhibition of cell lines treated with 2X-121", "assay_type": "cell-based", "details": "cell line SNG-II, origin Endometrial; read-out: Measured growth inhibition IC50"}, "[28]": {"tested_on": "MDA-MB-157", "experiment": "Growth inhibition of cell lines treated with 2X-121", "assay_type": "cell-based", "details": "Homo sapiens; cell line MDA-MB-157, origin Breast; read-out: Measured growth inhibition IC50"}, "[29]": {"tested_on": "T47D", "experiment": "Growth inhibition of cell lines treated with 2X-121", "assay_type": "cell-based", "details": "Homo sapiens; cell line T47D, origin Breast; read-out: Measured growth inhibition IC50"}}}
{"molecule": "O=c1[nH]nc2c3c(cccc13)N=C(CN1Cc3ccccc3C1)N2", "note": "[2X-121, 8-(isoindolin-2-ylmethyl)-2,9-dihydro-3H-pyridazino[3,4,5-de]quinazolin-3-one]", "values": [{"measurement": "IC50", "setting": "[1]", "result": 1280, "unit": "nM"}, {"measurement": "IC50", "setting": "[2]", "result": 950, "unit": "nM"}, {"measurement": "IC50", "setting": "[3]", "result": 680, "unit": "nM"}, {"measurement": "IC50", "setting": "[4]", "result": 2000, "unit": "nM"}, {"measurement": "IC50", "setting": "[5]", "result": 1700, "unit": "nM"}, {"measurement": "IC50", "setting": "[6]", "result": 190, "unit": "nM"}, {"measurement": "IC50", "setting": "[7]", "result": 19000, "unit": "nM"}, {"measurement": "IC50", "setting": "[8]", "result": 2500, "unit": "nM"}, {"measurement": "IC50", "setting": "[9]", "result": 2960, "unit": "nM"}, {"measurement": "IC50", "setting": "[10]", "result": 25000, "unit": "nM"}, {"measurement": "IC50", "setting": "[11]", "result": 2300, "unit": "nM"}, {"measurement": "IC50", "setting": "[12]", "result": 7900, "unit": "nM"}, {"measurement": "IC50", "setting": "[13]", "result": 2100, "unit": "nM"}, {"measurement": "IC50", "setting": "[14]", "result": 1440, "unit": "nM"}, {"measurement": "IC50", "setting": "[15]", "result": 1260, "unit": "nM"}, {"measurement": "substrate for P-glycoprotein", "setting": "[16]", "result": "not a substrate for P-glycoprotein"}, {"measurement": "IC50", "setting": "[17]", "result": 5400, "unit": "nM"}, {"measurement": "IC50", "setting": "[18]", "result": 2130, "unit": "nM"}, {"measurement": "IC50", "setting": "[19]", "result": 2200, "unit": "nM"}, {"measurement": "IC50", "setting": "[20]", "result": 7300, "unit": "nM"}, {"measurement": "IC50", "setting": "[21]", "result": 5300, "unit": "nM"}, {"measurement": "IC50", "setting": "[22]", "result": 5400, "unit": "nM"}, {"measurement": "IC50", "setting": "[23]", "result": 670, "unit": "nM"}, {"measurement": "IC50", "setting": "[24]", "result": 3450, "unit": "nM"}, {"measurement": "IC50", "setting": "[25]", "result": 620, "unit": "nM"}, {"measurement": "IC50", "setting": "[26]", "result": 4300, "unit": "nM"}, {"measurement": "IC50", "setting": "[27]", "result": 5260, "unit": "nM"}, {"measurement": "IC50", "setting": "[28]", "result": 6800, "unit": "nM"}, {"measurement": "IC50", "setting": "[29]", "result": 7800, "unit": "nM"}]}
